Experimental data reported in patent US7879829B2, “19-nor-vitamin D analogs with 1,2-dihydrofuran ring” (Wisconsin Alumni Research Foundation, priority 2008, dated 2011).
“Also recorded” adds a separate entry of the source. Read-outs that look alike come from different tables or passages of the source.

What was measured:
HL-60 cells = assay: HL-60 differentiation (nitro blue tetrazolium reduction); type: cell-based, human; conditions: for EC50: HL-60 cells, 4 days, read-out: EC50, HL60 differentiation
Protocol: The study drugs were dissolved in ethanol and the concentrations determined using UV spectrophotometry. Serial dilutions were prepared so that a range of drug concentrations could be tested without changing the final concentration of ethanol (≦0.2%) present in the cell cultures.
Human promyelocytic leukemia (HL60) cells were grown in RPMI-1640 medium containing 10% fetal bovine serum. The cells were incubated at 37° C. in the presence of 5% CO2.
HL60 cells were plated at 1.2×10^5 cells/ml. Eighteen hours after plating, cells in duplicate were treated with drug. Four days later, the cells were harvested and a nitro blue tetrazolium reduction assay was performed (Collins et al., 1979; J. Exp. Med. 149:969-974). The percentage of differentiated cells was determined by counting a total of 200 cells and recording the number that contained intracellular black-blue formazan deposits. Verification of differentiation to monocytic cells was determined by measuring phagocytic activity (data not shown).

[1] = system: 24-hydroxylase (24 Ohase) gene promoter in ROS 17/2.8 (bone) cells; assay: In vitro transcription assay (24-hydroxylase promoter luciferase reporter); type: cell-based; conditions: FIG. 3; for EC50: ROS 17/2.8 cells, 24-hydroxylase promoter luciferase, 16 h, read-out: EC50, transcriptional activity in bone cells; for transcription of the 24-hydroxylase gene, times less potent than 1,25-(OH)2D3: relative to 1,25-(OH)2D3
Protocol: In vitro Transcription Assay
Transcription activity was measured in ROS 17/2.8 (bone) cells that were stably transfected with a 24-hydroxylase (24 Ohase) gene promoter upstream of a luciferase reporter gene (Arbour et al., 1998). Cells were given a range of doses. Sixteen hours after dosing the cells were harvested and luciferase activities were measured using a luminometer.
RLU=relative luciferase units.

[2] = system: intestinal calcium transport; assay: Intestinal calcium transport (everted gut sac method); type: in vivo, Sprague-Dawley rats; conditions: FIG. 5
Protocol: (§1) Intestinal Calcium Transport and Bone Calcium Mobilization Male, weanling Sprague-Dawley rats were placed on Diet 11 (0.47% Ca) diet +AEK oil for one week followed by Diet 11 (0.02% Ca) +AEK oil for 3 weeks. The rats were then switched to a diet containing 0.47% Ca for one week followed by two weeks on a diet containing 0.02% Ca. Dose administration began during the last week on 0.02% calcium diet. Four consecutive ip doses were given approximately 24 hours apart. Twenty-four hours after the last dose, blood was collected from the severed neck and the concentration of serum calcium determined as a measure of bone calcium mobilization. The first 10 cm of the intestine was also collected for intestinal calcium transport analysis using the everted gut sac method.

[3] = target: T1, full-length recombinant rat vitamin D receptor (Rattus norvegicus, UniProt P13053); assay: Vitamin D receptor competitive binding with [3H]-1,25-(OH)2D3
T1 construct: Full-length recombinant rat receptor was expressed in E. coli; histidine tag (C); made in house; host or cells: E. coli BL21 (DE3) Codon Plus RIL
T1 sequence (P13053 1-423): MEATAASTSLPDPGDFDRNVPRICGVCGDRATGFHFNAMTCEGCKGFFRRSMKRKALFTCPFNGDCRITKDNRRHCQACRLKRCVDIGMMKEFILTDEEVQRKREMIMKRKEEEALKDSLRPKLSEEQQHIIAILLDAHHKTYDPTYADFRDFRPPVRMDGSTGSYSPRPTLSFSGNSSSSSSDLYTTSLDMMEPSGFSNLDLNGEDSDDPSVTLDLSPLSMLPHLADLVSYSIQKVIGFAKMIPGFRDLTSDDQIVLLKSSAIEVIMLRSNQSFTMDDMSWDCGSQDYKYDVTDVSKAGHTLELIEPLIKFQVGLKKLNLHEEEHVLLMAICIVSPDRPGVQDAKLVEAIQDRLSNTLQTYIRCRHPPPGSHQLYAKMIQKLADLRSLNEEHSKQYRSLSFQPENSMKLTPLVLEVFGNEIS
Text: Vitamin D Receptor Binding
Full-length recombinant rat receptor was expressed in E. coli BL2 1 (DE3) Codon Plus RIL cells and purified to homogeneity using two different column chromatography systems. The first system was a nickel affinity resin that utilizes the C-terminal histidine tag on this protein. The protein that was eluted from this resin was further purified using ion exchange chromatography (S-Sepharose Fast Flow). Aliquots of the purified protein were quick frozen in liquid nitrogen and stored at −80° C. until use. For use in binding assays, the protein was diluted in TEDK50 (50 mM Tris, 1.5 mM EDTA, pH 7.4, 5 mM DTT, 150 mM KCl) with 0.1% Chaps detergent. The receptor protein and ligand concentration were optimized such that no more than 20% of the added radiolabeled ligand was bound to the receptor.
Radiolabeled and unlabeled ligands were added to 100 mcl of the diluted protein at a final ethanol concentration of ≦10%, mixed and incubated overnight on ice to reach binding equilibrium. The following day, 100 mcl of hydroxylapatite slurry (50%) was added to each tube and mixed at 10-minute intervals for 30 minutes. The hydroxylapaptite was collected by centrifugation and then washed three times with Tris-EDTA buffer (50 mM Tris, 1.5 mM EDTA, pH 7.4) containing 0.5% Titron X-100. After the final wash, the pellets were transferred to scintillation vials containing 4 ml of Biosafe II scintillation cocktail, mixed and placed in a scintillation counter. Total binding was determined from the tubes containing only radiolabeled ligand.

[4] = system: bone calcium mobilization; assay: Bone calcium mobilization (serum calcium); type: in vivo, Sprague-Dawley rats; conditions: low calcium diet (0.02%), FIG. 4; for bone calcium mobilization activity: ip
Protocol: as §1

| SMILES | EC50 (HL-60 cells; Homo sapiens, 96 h, FIG. 2) | HL-60 differentiation, times less potent than 1,25-(OH)2D3 (HL-60 cells; relative to 1,25-(OH)2D3, FIG. 2) | reduced cell differentiation potency (HL-60 cells; relative to native hormone) | EC50 [1] | transcription of the 24-hydroxylase gene, times less potent than 1,25-(OH)2D3 [1] | transcription of the 24-hydroxylase gene, times less potent than 1,25-(OH)2D3 ([1]; listed as Ia) | intestinal calcium transport activity ([2]; 780 pmol/day for 4 consecutive days, compared with 1,25-(OH)2D3 at 780 pmol/day) | intestinal calcium transport activity, overall compared with 1,25-(OH)2D3 ([2]; in vivo, no dose stated) | Ki ([3]; full-length recombinant rat vitamin D receptor, FIG. 1, read-out: Ki, competition with [3H]-1,25-(OH)2D3 for binding to VDR) | VDR affinity, times less potent than 1,25-(OH)2D3 ([3]; relative to 1,25-(OH)2D3, FIG. 1) | reduced VDR binding affinity ([3]; relative to native hormone) | bone calcium mobilization activity ([4]; 7,020 pmol/day for 4 consecutive days) | EC50 (HL-60 cells; FIG. 2) | bone calcium mobilization activity ([4]; 260 pmol/day) | serum calcium levels ([4]; all the dosages tested) |
| --- | --- | --- | --- | --- | --- | --- | --- | --- | --- | --- | --- | --- | --- | --- | --- |
| C[C@H](CCCC(C)(C)O)C1CCC2/C(=C/C=C3/C[C@@H](O)C4=CCO[C@@H]4C3)CCC[C@@]21C (stereo partly shown) [A-REV5, 1,2-dihydrofuran-25-hydroxy-19-nor-vitamin D3] | 30 nM | ~10 times | 1 log | 8 nM | about 40 times | 40 times | almost the same activity as 1,25-(OH)2D3 | promotes intestinal calcium transport in a dose dependent manner; also recorded: only slightly lower potency in vivo | 0.6 nM | ~10 times | about 1 log | no bone calcium mobilization activity; also recorded: did not result in any mobilization of bone calcium |  |  |  |
| C=C1/C(=C\C=C2/CCC[C@]3(C)[C@@H]([C@H](C)CCCC(C)(C)O)CC[C@@H]23)C[C@@H](O)C[C@@H]1O [1,25-(OH)2D3, 1α,25-dihydroxyvitamin D3, reference compound] |  |  |  | 0.2 nM |  |  |  |  |  |  |  |  | 3 nM | significant activity | increased serum calcium levels at all the dosages tested |
